Test results reported in patent publication US6696280B2, “Candida geranylgeranyl-protein transferase polypetide, compositions and methods related thereto” (GPC Biotech, Inc., priority 1996, dated 2004).

How the values were obtained:
[1] = system: rho1 mutant strains YOC752 (rho1-2), YOC729 (rho1-3), YOC755 (rho1-5); assay: Drug sensitivity of conditional rho1 mutants; assay type: cell-based, Saccharomyces cerevisiae; conditions: 23° C.
[2] = biological target: T1, PKC1 (Saccharomyces cerevisiae, UniProt P24583); assay: PKC1 protein kinase assay with synthetic Bck1 peptide; assay type: biochemical; conditions: with or without cofactors PS, DAG, Ca2+
T1 construct: made in house; host or cells: PKC1-HA immunoprecipitated from S. cerevisiae extract; GST-Rho1 from baculovirus-infected Sf9 cells
T1 sequence (P24583 1-1151): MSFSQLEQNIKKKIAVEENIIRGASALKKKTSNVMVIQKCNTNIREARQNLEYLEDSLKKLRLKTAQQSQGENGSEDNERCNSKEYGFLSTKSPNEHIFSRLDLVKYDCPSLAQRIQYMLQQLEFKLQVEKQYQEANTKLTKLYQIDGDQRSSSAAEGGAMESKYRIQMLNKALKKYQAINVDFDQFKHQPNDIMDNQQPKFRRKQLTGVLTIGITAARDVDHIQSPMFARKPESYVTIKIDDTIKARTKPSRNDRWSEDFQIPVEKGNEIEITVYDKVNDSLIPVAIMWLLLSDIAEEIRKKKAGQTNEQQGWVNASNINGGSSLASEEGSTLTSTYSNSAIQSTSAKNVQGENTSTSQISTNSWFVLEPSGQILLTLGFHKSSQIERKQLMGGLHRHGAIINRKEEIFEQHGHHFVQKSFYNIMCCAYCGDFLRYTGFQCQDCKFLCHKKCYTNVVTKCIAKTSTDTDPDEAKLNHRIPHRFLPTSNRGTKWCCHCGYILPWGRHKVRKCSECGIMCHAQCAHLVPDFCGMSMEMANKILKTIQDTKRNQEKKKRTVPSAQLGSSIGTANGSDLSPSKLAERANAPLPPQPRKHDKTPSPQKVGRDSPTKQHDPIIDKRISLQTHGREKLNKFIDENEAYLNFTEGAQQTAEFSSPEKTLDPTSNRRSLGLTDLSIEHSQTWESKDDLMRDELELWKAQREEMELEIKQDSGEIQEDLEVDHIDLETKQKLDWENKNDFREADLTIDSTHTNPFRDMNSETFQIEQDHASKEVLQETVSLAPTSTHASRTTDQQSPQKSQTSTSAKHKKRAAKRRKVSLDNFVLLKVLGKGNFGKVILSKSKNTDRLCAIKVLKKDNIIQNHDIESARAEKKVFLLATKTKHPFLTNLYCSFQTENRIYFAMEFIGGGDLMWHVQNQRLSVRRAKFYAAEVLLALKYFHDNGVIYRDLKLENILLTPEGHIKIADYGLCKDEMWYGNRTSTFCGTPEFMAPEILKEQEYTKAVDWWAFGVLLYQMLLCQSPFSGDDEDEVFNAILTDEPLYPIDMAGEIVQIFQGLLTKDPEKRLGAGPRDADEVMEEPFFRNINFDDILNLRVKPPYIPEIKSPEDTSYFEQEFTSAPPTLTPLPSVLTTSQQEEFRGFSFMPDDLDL
Method: (§1) FIGS. 4A-4B. Rho1 allows cofactors to activate PKC1. FIG. 4A. Phosphorylation of synthetic Bck1 peptide by PKC1^HA immunoprecipitated from 50 μg of soluble yeast cell extract protein. Recombinant GST-Rho1 or GST-Cdc42 (1 μg) was preloaded with the indicated guanine nucleotide. Cofactors (80 μg/ml PS, 8 μg/ml DAG, and 100 μM CaCl2) were added to the reaction where indicated. Lanes 1 and 2 are control reactions with no GTPase. Mean and standard error for three experiments is shown. FIG. 4B. PS alone is sufficient to stimulate PKC1 fully in the presence of Rho1. Phosphorylation of Bck1 peptide by PKC1^HA in the presence of GTPγS-bound GST-Rho1 and the indicated cofactors. Conditions were as in FIG. 4A, except for PMA (16 ng/ml). Concentrations of PS as low as 8 μg/ml fully activated PKC1 (data not shown).
(§2) Yeast extract preparation, immunoprecipitation, immunodetection and protein kinase assays of Mpk1^HA were conducted as described previously (4). Preparation of cell extracts and immunoprecipitations for experiments with ^HARho1 were carried out as in (4) with some modifications. Lysis buffer without ρ-nitrophenyl phosphate and with 1% NP-40 was used. The extract (700 μg protein) was precleared by incubation with 20 μl of a 50% suspension of protein A-sepharose for 1 h prior to immunoprecipitation to eliminate non-specific binding of proteins to immunecomplexes. Beads were boiled in SDS-PAGE sample buffer, and samples were applied to 7.5% (for PKC1 blots) or 15% (for ^HARho1 blots) SDS-PAGE gels. For PKC1 kinase assays, all as described previously (5), except for the addition of recombinant GTPases (see below). A synthetic peptide corresponding to the sequence surrounding Ser939 of Bck1, a phosphorylation site for PKC 1, was used as substrate in PKC 1 kinase assays (5).
(§3) Recombinant Rho1 and Cdc42. Recombinant GST-Rho 1 and GST-Cdc42 were expressed and purified from baculovirus-infected insect (Sf9) cells, as described (23). For in vitro association with PKC1^HA, GST-Rho1 was not eluted from the glutathione agarose beads used for purification. GST-Rho1-bound beads were incubated with cell extract in immunoprecipitation buffer (4) for 5 h at 4° C., followed by 3 washes with this buffer. For use in PKC1^HA protein kinase assays, GST-Rho1 and GST-Cdc42 were eluted from the beads with reduced glutathione.

[3] = system: 1,3-β-glucan synthase; assay: Reconstitution of GS activity in rho1-3 membranes; assay type: biochemical, Saccharomyces cerevisiae; conditions: 37° C., 1 μg recombinant GTPase, 50 μM GTPγS
Method: FIGS. 6A-6C. GS activity from rho1 mutants (See reference of Example 3). FIG. 6A. GS activity is thermolabile in rho1^ts mutants. Crude extracts were made from cells growing at room temperature, and assayed for GS activity at the indicated temperatures in the presence of 50 μM GTPγS. FIG. 6B. Reconstitution of GS activity in rho 1-3 membranes with recombinant Rho1. GS activity in rho1-3 membrane fractions was measured at 37° C. in the presence of 1 μg of the indicated recombinant GTPase and 50 μM GTPγS (19). FIG. 6C. Reconstituted GS activity requires GTP. GS activity in wild-type membranes or rho1-3 membranes complemented with 1 μg of GST-Rho1 was measured at 37° C. in the presence of the indicated guanine nucleotide (20 μM). Results are expressed as percent activity relative to GTPγS.
18. Crude yeast extracts were prepared as described [Y. Kamada et al., (1995) Genes Dev. 9:1559], and stored at −80° C. in lysis buffer supplemented with 33% glycerol. Membrane fractions, where indicated, were obtained from crude extracts and 1,3-β-glucan synthase (GS) activity was measured as described in (2) with the following modifications: UDP-[^3H]glucose was used as the substrate and α-amylase (1 U/40 μl) was added to reaction mixtures to eliminate the contribution of [^3H]glucose incorporation into glycogen. For all GS assays, the mean and standard error for four experiments is shown.
19. […]

[4] = biological target: T2, PKC1 (Saccharomyces cerevisiae, UniProt P24583); assay: PKC1 protein kinase assay with synthetic Bck1 peptide; assay type: biochemical; conditions: for Stimulation of PKC1 by cofactor: in the presence of GTP-bound GST-Rho1
T2 construct: made in house; host or cells: PKC1-HA immunoprecipitated from S. cerevisiae extract; GST-Rho1 from baculovirus-infected Sf9 cells
Method: as §1, §2, §3
T2 sequence (P06780 2-206, one chain of several): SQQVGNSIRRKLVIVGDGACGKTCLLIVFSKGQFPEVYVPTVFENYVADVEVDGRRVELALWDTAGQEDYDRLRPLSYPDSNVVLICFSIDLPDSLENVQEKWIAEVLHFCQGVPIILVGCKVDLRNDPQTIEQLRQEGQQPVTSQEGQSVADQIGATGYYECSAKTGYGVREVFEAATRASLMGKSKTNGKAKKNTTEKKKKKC

[5] = system: CaGGTase; assay: Km determination, prenylation (TCA precipitation) assay; assay type: biochemical, Candida
Method: Briefly, a DEAE FF column is used for the first chromatographic step. The fractions from the columns in the purification are assayed for both GGTase and Ftase. For GGTase, 0.2 μM CaRho and 0.5 μM GGPP are used. For the FTase assay, 0.5 μM N-ras and 0.5 μM FPP are used. Both reactions are for 20-30 minutes at 37° C. The GGTase activity and FTase activity overlapped on the intial chromatography step, although the FTase activity was slightly shifted to the later fractions. The majority of the GGTase activity is pooled and then run on a SourceQ column, which separates the FTase and GGTase activities.
The fractions from the columns in the purification are being assayed for both GGtase and FTase. For GGTase 0.2 uM CaRho and 0.5 uM GGPP are used. For the FTase assay 0.5 uM N-ras and 0.5 uM FPP are used. Both reactions are for 20-30 minutes at 37°.
The second column (20 mL) Source Q separated the FTase from the GGTase The salt gradient was stretched out for 10 column volumes and 3.5 mL fractions were collected. Fraction 16 and 17 were used for Km and IC50 studies by Marc P.

## echinocandin B
[1]
  Sensitivity of rho1 mutants to drug: hypersensitivity

## GST-Rho1: recombinant glutathione-S-transferase-Rho1 fusion purified from Sf9 insect cells
[2]
  Stimulation of PKC1 activity by recombinant GTPase: did not stimulate PKC1 activity alone
[3]
  Restoration of GS activity: restored fully

## diacylglycerol [DAG]
[4]
  Stimulation of PKC1 by cofactor: No additional stimulation

## [Ca+2] [Ca^2+]
[4]
  Stimulation of PKC1 by cofactor: No additional stimulation

## huRhoA: human RhoA GTPase, protein substrate
[5]
  Km Values: Nor is human RhoA a substrate

## phosphatidylserine
[4]
  Stimulation of PKC1 by cofactor: strongly activated
[4]; in the presence of GTPγS-bound GST-Rho1, data not shown
  Concentration of PS that fully activated PKC1: ≤ 8 µg/mL

## CCCCCCCCCCCCCC(=O)O[C@@H]1[C@@H](C)[C@@]2(O)[C@@H](C=C(CO)C[C@]3(O)C(=O)C(C)=C[C@@H]23)[C@@H]2C(C)(C)[C@]12OC(C)=O [PMA, phorbol myristate acetate]
[4]
  Stimulation of PKC1 by cofactor: No additional stimulation

## O=S(=O)(O)c1cc(Nc2nc(Nc3ccccc3)nc(N(CCO)CCO)n2)ccc1/C=C/c1ccc(Nc2nc(Nc3ccccc3)nc(N(CCO)CCO)n2)cc1S(=O)(=O)O [Calcofluor white]
[1]
  Sensitivity of rho1 mutants to drug: hypersensitivity
